7 compounds from patent publication US6080791A, “Method of treating a viral condition by inhibiting membrane fusion” (priority 1992, dated 2000) can be followed below.

One data set can be described thus: in vitro. The settings on record: dog, mdck.
For data set [1] the following is noted: 1 mM. The protocol:
Synthesis, purification, and characterization of selected compounds are summarized below. Stock solutions were prepared fresh daily. All solutions of the test compounds were prepared in dimethyl-sulfoxide (DMSO).

The subject of data set [2] is C22 virus in MDCK2 cells. Briefly: microbe, parasite or virus in culture. The settings on record: unidentified influenza virus.
In data set [3] the test system is C22 virus in MDCK2 cells.
In data set [4] the test system is influenza-mediated syncytia formation, CV-1 cells.
Data set [5] has the same test system. Briefly: cells. As to conditions: unidentified influenza virus, CV-1, read-out: IC50 syncytia.
In data set [6] the test system is hemagglutinin-mediated hemolysis of human red blood cells. Briefly: Hemolysis (HEM) assay. Format: cell-based, C22 influenza virus; human red blood cells. As to conditions: for inhibition at 100 µM: log conc -4 (M); for inhibition at 1000 µM: log conc -3 (M).
The next data set concerns hemoglobin. Description: Hb control (quenching of OD570 of hemoglobin). The arrangement: species or system human.
In data set [7] the target is T1, hemagglutinin (Influenza A virus (A/X-31(H3N2)), UniProt P03438).
T1 construct: HA1 and HA2 cleaved from precursor HA0
Briefly: Binding site by crystallography (preliminary).

For another data set, the system named is low pH BHA. Briefly: SPA POST control (nonspecific quenching). On the set-up: species or system C22 / X31 influenza virus (H3N2). The method, then: The compounds being screened by SPA are present during scintillation counting. Some of the chemicals, particularly those that are highly colored, quench the detection of radioactivity. A control ("POST") distinguishes whether apparent inhibition arises from inhibition of the conformational change or from nonspecific effects. The test compound is added to a sample of BHA that had previously been acidified and reneutralized. The mixture is then precipitated as usual. Since the BHA treated in this manner is known to be in the low pH conformation, a reduction in measurable cpm compared to controls with ligand omitted proves the compound interferes with the detection system.
^3 H-Leu BHA was diluted to 10,000 cpm (counts per minute) per 200 μl in MSSH buffer (10 mM HEPES, 10 mM MES, 10 mM succinate, 0.10 M NaCl, pH 7.0) containing 0.1% NP40. Protein was incubated with the specified concentration of trial compound for 25 minutes at RT. The same volume of solvent used to dissolve the compound was added to control samples and the final concentration of DMSO in all solutions was 0.67% v/v. A predetermined amount of 1N HAc was added to bring the reactions to the appropriate pH (usually pH 5.0). Following a 5 minute (unless specified otherwise) incubation at RT, reactions were reneutralized with 1N NaOH. For POST controls, compounds were added to the appropriate concentration after reneutralization. 200 μL aliquots of the protein solution were added to scintillation vials containing 100 μl protein A-SPA beads (Amersham), 5% fetal bovine serum (FBS), and antibody. Vials were incubated overnight at RT with constant shaking. Each reaction used 10 μl of fusion peptide antiserum diluted 1:10 with 50% glycerol. Cpm were detected in a Beckman LS3801 scintillation counter without addition of liquid scintillant.
Apparent inhibition due to nonspecific effects was quantitated from the POST controls with the equation:
observed cpm=true cpm*quench factor

The target in the next data set is HIV-1 fusion protein (Human immunodeficiency virus type 1 group M subtype B, UniProt P04578). Description: Inhibition of fusion mediated by the HIV-1 fusion protein. Format: cell-based.
Data set [8] has as its target hemagglutinin (BHA), fusion peptide exposure (Influenza A virus (A/X-31(H3N2)), UniProt P03438). Format: biochemical, C22 / X31 influenza virus (H3N2).
For data set [9], the target named is C22 BHA (Influenza A virus (A/X-31(H3N2)), UniProt P03438). The class given is biochemical.
The target of data set [10] is BHA (Influenza A virus (A/X-31(H3N2)), UniProt P03438). Format: biochemical, C22 / X31 influenza virus (H3N2). As to conditions: 1 mM.
Setting [11] is: MDCK2, 15 h, read-out: infectivity % inhibition.
Where [12] appears, read: unidentified influenza virus, Erythrocyte, 0.25 h, Table 6, 10^-3 = 1 mM, low pH 15 minutes, read-out: IC50 hemolysis.
The mark [13] stands for this setting: unidentified influenza virus, Erythrocyte, Table 7, read-out: HEM, negative log of IC50 (converted).
Setting [14] is: unidentified influenza virus, Erythrocyte, read-out: hemolysis % ↓ OD.
Setting [15] is: MDCK2, read-out: IC50 infectivity.
Setting [16] is: MDCK2, read-out: INF, negative log of IC50 (converted).

Each structure is given as a SMILES string. Where two headings read alike, the source gives them in different places.

Experimental for in vitro: The ELISA-based assay described below (EIA antiviral assay) was used to measure antiviral activity. Cell viability was measured in parallel to distinguish inhibition of viral replication from toxicity.
Infections of MDCK2 cells with virus, compounds, and DMSO were set up identically as for the EIA assay. Following the 15 hour incubation, test compounds were washed away with PBS. 50 μl of MDCK2 growth media and 25 μl 2 mg/ml 3-(4,5-dimethylthiazol-2-yl)-2,5-diphenyl tetrazolium bromide (Sigma) in PBS were added to each well. Plates were returned to 37° C., 5% CO2 for 4 hrs. Crystals were broken up by vigorous mixing following addition of 80 μl isopropanol/0.04 N HCl. After incubation for 30 mins at RT, OD570 was read on an ELISA reader. % Inhibition is the % reduction of OD570 in the wells infected with compound compared to otherwise identical samples with compound omitted.

In the case of `Oc1ccc(O)c2ccccc12` [Compound 110, 1,4-dihydroxynaphthalene], in “in vitro”, the cytotoxicity at 15 h, 1 µM stood at 5 ± 12.5%; the cytotoxicity at 15 h, 10 µM is 19.2 ± 15.6%; the cytotoxicity at 15 h, 100 µM worked out at 98.3 ± 1.2%; the cytotoxicity at 15 h, 1000 µM turned out to be 96.9 ± 0.4%. For the same compound, the “solubility at 1 mM” value in data set [1] is “only partially soluble at 1 mM”. Moreover, in the data set on C22 virus in MDCK2 cells [2] (setting [11]), the inhibition at 1 µM was -9.8 ± 0.6%, the inhibition at 10 µM amounted to 61.1 ± 50.8%, the inhibition at 100 µM came to 91.9 ± 11.5% and the inhibition at 1000 µM is 102%.
Turning to `Oc1ccc(O)c(-c2ccccc2)c1` [Compound 105, phenylhydroquinone], the cytotoxicity at 15 h, 100 µM in the data set “in vitro” was 100%. Further, the “solubility at 1 mM” value in [1] is “only partially soluble at 1 mM”. In addition, in the data set with C22 virus in MDCK2 cells [3], the “infectivity in Table 6” value is listed as “toxic” and the “INF, words (Table 7)” value is on record as “toxic”.
Take `O=C1C=C(O)C(=O)c2ccccc21` [Compound 120, 2-hydroxy-1,4-naphthoquinone]: the cytotoxicity at 15 h, 1 µM in the data set “in vitro” stood at 0.5 ± 0.3%. In addition, the cytotoxicity at 15 h, 10 µM in “in vitro” was -6 ± 5%. In addition, in the data set “in vitro”, the cytotoxicity at 15 h, 100 µM is -7 ± 4.4%. In addition, the “inhibition of syncytia formation” value in [4] (10 μM) is recorded as “Significant inhibition was not observed”. The IC50 (commonly the point on the concentration scale where inhibition reaches its midpoint) is > 10 µM in [5]; > 100 µM in data set [6] (setting [12]); > 100 µM in data set [6] (setting [13]); > 1000 µM with C22 virus in MDCK2 cells [2] (setting [15]); > 1000 µM in the data set with C22 virus in MDCK2 cells [2] (setting [16]). Moreover, in data set [6], the “inhibition of hemolytic activity” value is “did not”. Further, the values for the inhibition at 100 µM (in data set [6] (setting [14]); in the data set on C22 virus in MDCK2 cells [2] (setting [11])) were 6.2% and -2.3 ± 3.1%, respectively. Also, the “Hb control % ↓ OD” value with hemoglobin (log conc -4 (M)) came to 4.4%. In addition, the inhibition at 1 µM with C22 virus in MDCK2 cells [2] (setting [11]) was 7.1 ± 6.7%. For the same compound, the inhibition at 10 µM in the data set on C22 virus in MDCK2 cells [2] (setting [11]) was 4.7 ± 0.9%.
For `O=C1C=CC(=O)c2ccccc21` [Compound 90, 1,4-naphthoquinone], the “binding site (preliminary crystallographic results)” value in data set [7] is given as “binding to hemagglutinin at a site in the hinge region of the trimer”. In “in vitro”, the cytotoxicity at 15 h, 1 µM was -6.7 ± 7.3%. For the same compound, the cytotoxicity at 15 h, 10 µM in “in vitro” was 33 ± 9.9%. The cytotoxicity at 15 h, 100 µM in “in vitro” stood at 96.8 ± 3.8%. For the same compound, the “% inhibition, POST control” value came out at 68.2% with low pH BHA (log conc -3 (M)), 30.8% with low pH BHA (log conc -4 (M)) and 4.6% in the data set with low pH BHA (log conc -5 (M)). The “syncytia, Table 6” value in [4] (Table 6) is given as “morph”. The IC50 in [6] (setting [12]) is 1000 µM; in data set [6] (setting [13]) it was 1000 µM; against HIV-1 fusion protein it was 2 µM; in the data set with C22 virus in MDCK2 cells [2] (setting [15]), 10 µM; with C22 virus in MDCK2 cells [2] (setting [16]) it was 10 µM. Further, the inhibition at 1000 µM in data set [6] (setting [14]) stood at 90.3%. Further, the inhibition at 100 µM amounted to 33.1% in data set [6] (setting [14]) and 96.9% in the data set on C22 virus in MDCK2 cells [2] (setting [11]). Further, the inhibition at 10 µM was determined as 4.7% in [6] (unidentified influenza virus, Erythrocyte, log conc -5 (M), read-out: hemolysis % ↓ OD) and 81.7 ± 2.2% in the data set on C22 virus in MDCK2 cells [2] (setting [11]). The “Hb control % ↓ OD” value in the data set on hemoglobin (log conc -3 (M)) amounted to 68.1%; in the data set with hemoglobin (log conc -4 (M)), 57.1%; with hemoglobin (log conc -5 (M)), 24.9%. Besides, the inhibition at 1 µM in the data set on C22 virus in MDCK2 cells [2] (setting [11]) is -3.3 ± 2.4%.
Regarding `COc1ccc(O)c2ccccc12` [Compound 107, 4-methoxy-1-naphthol], the cytotoxicity at 15 h, 100 µM in “in vitro” is 96.9%. The “hemolysis column of Table 6, words” value in [6] (Table 6) is recorded as “quench”. In addition, the “HEM, words (Table 7)” value in data set [6] (Table 7) is recorded as “quench”. Besides, the inhibition at 1000 µM in data set [6] (setting [14]) amounted to 104%. Also, the “solubility at 1 mM” value in [1] is on record as “only partially soluble at 1 mM”. Moreover, in the data set on C22 virus in MDCK2 cells [3], the “infectivity in Table 6” value is listed as “toxic” and the “INF, words (Table 7)” value was “toxic”. Further, half-maximal inhibition at HIV-1 fusion protein (IC50) required 50 µM. The “Hb control % ↓ OD” value with hemoglobin (log conc -3 (M)) came to 92.5%.
Regarding `O=C1C=CC(=O)C2C3C=CC(C3)C12` (stereo not shown) [Compound 83K, 4A,5,8,8A-tetrahydro-5,8-methano-1,4-naphthoguinone], the cytotoxicity at 15 h, 1 µM in the data set “in vitro” is 3.4 ± 10.5%. For the same compound, in “in vitro”, the cytotoxicity at 15 h, 10 µM was 7.3 ± 8.9%. Besides, in “in vitro”, the cytotoxicity at 15 h, 100 µM is 46.4 ± 15.1%. Also, in the data set “in vitro”, the cytotoxicity at 15 h, 1000 µM was 92.9 ± 7.4%. The “Inhibition of the POST controls” value in the data set on low pH BHA (10 mM) is given as 26.4%; in the data set on low pH BHA (all other concentrations (below 10 mM)), ≤ 4%. Also, the “% inhibition, POST control” value in the data set with low pH BHA (log conc -3 (M)) is -5.3 ± 2.1%; in the data set on low pH BHA (log conc -4 (M)), 3.0%; with low pH BHA (log conc -5 (M)) it was 0.8 ± 12.7%; in the data set on low pH BHA (log conc -6 (M)), -6.2%. For the same compound, in data set [8], the “% inhibition, sample (Table 1)” value is 49.1 ± 15.0%. Moreover, in [8] (10^-5 M), the “inhibition at 10^-5 M” value is “negligible inhibition”. For the same compound, the “inhibition of hemolytic activity” value in [6] is recorded as “apparently inhibited hemolytic activity”. Moreover, the IC50 in [6] (setting [13]) was 100 to 1000 µM. For the same compound, the “infectivity in Table 6” value in the data set with C22 virus in MDCK2 cells [3] is given as “toxic”. In addition, the “INF, words (Table 7)” value in the data set on C22 virus in MDCK2 cells [3] is on record as “toxic”. Moreover, the “inhibition at low pH” value stood at 73% in [9] (10 seconds at pH 5.0) and 43% in data set [9] (10 minutes at pH 5.0). Further, the “fraction of its maximal inhibition of fusion peptide exposure maintained” value in data set [9] (after 10 minutes at pH 5.0, C22 BHA) worked out at 60%. In [10], the “reversibility of inhibition by dilution” value was “reversible by dilution”.
`Oc1ccc(Cl)c2ccccc12` [Compound 101, 4-chloro-1-naphthol]: in “in vitro”, the cytotoxicity at 15 h, 100 µM came to 97.4%. Besides, in data set [8] (1 μM-1 mM), the “inhibition in the SPA assay” value is given as “showed no inhibition”. The “activity note in Table 7” value in data set [8] (Table 7) is “inactive”. In addition, the inhibition at 1000 µM in data set [6] (setting [14]) came out at 112%. Also, in [1], the “solubility at 1 mM” value is recorded as “only partially soluble at 1 mM”. In addition, in the data set on hemoglobin (log conc -3 (M)), the “Hb control % ↓ OD” value is 93.0%.
